Measurements published in US8652439B2, “Compositions of HSP60 peptides and viral antigens for vaccination and diagnosis” (priority 2005, dated 2014).

Legend:
WNV [1] = assay: Protective efficacy of immunization against WNV challenge (mortality); type: in vivo, BALB/c mice
WNV [2] = assay: Virus levels in brain after p32 immunization and WNV challenge (RT-PCR and plaque assay); type: in vivo, mice; conditions: day 7 after challenge with 10^6 pfu WNV; immunized 3 times
IFNγ = IFNγ secretion of splenocytes from p32-vaccinated mice; type: in vivo; conditions: in vitro stimulation with WNV antigen
WNV-Ag [3] = assay: Isotypes of anti-WNV antibodies (ELISA); type: in vivo, mice
Procedure: Plates were coated with the WNV-Ag diluted 1:700 in coating buffer. After overnight incubation at 4° C., blocking and washing, various dilutions of mouse sera were added in triplicates. Negative and positive controls of mouse sera were tested in each plate. Total IgG assessment was performed using HRP-Streptavidin-conjugated anti-mouse IgG (SouthernBiotech). For antibody isotype identification, incubation with biotin-conjugated anti-mouse IgG1, IgG2a, IgG2b, IgG3, IgA and IgM antibodies (PharMingen, San Diego, Calif.) was followed by incubation with 1:1000 diluted HRP-Streptavidin (Jackson Laboratories, West Grove, Pa.). After substrate addition the color intensity was measured by ELISA-reader at 405 nm.
Next, it was examined whether p32 immunization and sublethal infection with WNV induce similar isotypes of anti-WNV antibodies. WNV-Ag was used as the antigen in the ELISA plates.

WNV-Ag [4] = assay: ELISA of anti-WNV Abs in sera of immunized mice; type: in vivo; conditions: 7 days after 3rd immunization; sera 1:40
Procedure: FIG. 11. Anti-WNV Abs in the sera of mice immunized with different peptides or with WNV Ag. (A) Mice were immunized 3 times with the different peptides or WNV-Ag at 7 day intervals. Seven days after the 3rd immunization mice were bled and sera were tested as follows. Wells were coated with WNV-Ag (1:700 dilution). After blocking and washing, the different sera were added at 1:40 dilution and binding was detected as described in methods (ELISA). Results are the average of 4 independent ELISA experiments. Bars, ±SD. (B) Isotypes of Anti-WNV antibodies.
ELISA tests were performed according to the method described by Martin et al (Martin et al, 2000) with slight modifications. Briefly, microtiter plates were coated and incubated overnight at 4° C. with 100 μl of the different peptides (1 μg/well) or WNV antigen diluted 1:700 in coating buffer (NaHCO3, pH=9.6). After incubation, the coating buffer was decanted and the plates were washed twice in PBS containing 0.05% Tween 20 and 0.2% sodium azide (washing buffer). After blocking for 1 h with a 200 μl/wen of PBS containing 0.05% Tween 20 and 2.5% nonfat dry milk, the plates were washed 4 times in washing buffer and 100 μl of IVIG-IL or mouse sera at 1:40 dilution were added to each well (2-4 wells per sample). […] The color intensity was measured by ELISA-reader (Dynatec MR 5000) at the absorbance of 405 nm. […]

splenocytes [5] = assay: Proliferation of splenocytes from p32-immunized mice after in vitro stimulation; type: in vivo; conditions: in vitro stimulation with WNV antigen
[6] = system: splenocytes from WNV-infected mice; assay: Proliferation of splenocytes from WNV-infected mice after in vitro stimulation with peptides; type: cell-based; conditions: in vitro stimulation with peptide
splenocytes [7] = assay: Proliferation of splenocytes from mice immunized with p15 conjugates, stimulated in vitro with p15; type: in vivo; conditions: spleens 10 days after immunization; p15 25 μg/ml, 3 days
Procedure: (§1) Mice were immunized with the following peptides as described in Example 8 using the following peptides: p15 (SEQ ID NO:11), p32 (SEQ ID NO:13), Ec27-p15 ([…], SEQ ID NO:77), and Mock-p15 ([…], SEQ ID NO:80—the p431 peptide fused to p15).
(§2) Spleens were harvested 10 days after the immunization and splenocytes were cultured with p15 (25 μg/ml) for 3 days. Cell proliferation and IFNγ levels in the supernatants of spleen cell cultures were measured. Results are the average of 3 independent proliferation experiments. Ec27-Ep15* and Ec27-Ep15** are two identical but independent groups in the same experiment.

IFN-γ = IFN-γ secretion of splenocytes from mice immunized with p15 conjugates, stimulated in vitro with p15; type: in vivo; conditions: spleens 10 days after immunization; p15 25 μg/ml, 3 days
Procedure: as §1, §2

lymph node cells = assay: Proliferative response of lymph node cells after immunization with the Ec27 peptide; type: in vivo, mice
BALB/c lymph node cells = assay: Proliferative response of lymph node cells to overlapping GroEL peptides after immunization with E. coli bacteria or GroEL; type: cell-based, BALB/c mice; conditions: mice immunized with E. coli bacteria or GroEL; peptides 20 μg/ml
[8] = 3 immunizations, 10^6 pfu WNV, 21 days post challenge, 5 experiments
[9] = sera of p32-immunized versus WNV-infected mice

## NEDQKIGIEIIKRALKILVTVNPFVSVATANS [p32]
WNV [1]; [8]
  Mortality (% deaths): (10%)
  Mortality (dead of total): 2/21
WNV [1]; summary of 5 experiments
  Protective efficacy against WNV challenge: a high degree of protection
WNV [2]
  Virus levels in the brain: no virus was detected
IFNγ
  IFNγ secretion of splenocytes from immunized mice: secretion of high levels of IFNγ
WNV-Ag [3]; sera of p32-immunized and WNV-infected mice
  WNV-specific IgA and IgG3: Neither IgA nor IgG3 specific for WNV were detected
WNV-Ag [3]; [9]
  Anti-WNV IgG1 and IgG2a levels: similarly high
  WNV-specific IgG2b levels: higher in sera from WNV-infected mice
  WNV-specific IgM levels: higher in p32-immunized mice
WNV-Ag [4]
  WNV-specific Abs in sera: high titer of WNV-specific Abs as compared to immunization with p15 alone
Splenocytes [5]
  Proliferation of splenocytes from immunized mice: proliferated in response to in vitro stimulation with WNV antigen
[6]
  Proliferation of T cells from WNV-infected mice: proliferated in response to in vitro stimulation

## KKARVEDALHATRAAVEEGV [Ec27]
Splenocytes [7]
  Proliferation of spleen cells in the presence of p15: did not induce significant proliferation
IFN-γ
  IFN-γ secretion of spleen cells in the presence of p15: did not induce significant proliferation and IFN-γ secretion
Lymph node cells; 20 μg Ec27 in IFA s.c., 10 days later
  Proliferative response of lymph node cells of Ec27-immunized BALB/c mice: responded the Ec27 peptide and to the whole GroEL molecule, but not to the control peptide AcR 259-271
Lymph node cells; BALB/c, BALB/k, BALB/b, SJL
  Proliferative response of mouse strains with different MHC haplotypes: all four different mouse strains responded specifically
BALB/c lymph node cells
  Proliferative response of draining LNC to GroEL peptide: highly immunogenic
